# Experimental data as given in patent publication US11679111B2, “Fatty acid synthase inhibitors” (priority 2016, dated 2023).
# Columns and labels:
# [1] = tested on: FASN activity in HepG2 cells; test: [3H] glucose and acetate incorporation into lipids in HepG2 cells; type: cell-based; conditions: FIG. 2D, cell line not stated
# Procedure: To specifically identify inhibitors of FASN targeting its nucleotide binding pockets Cibacron blue Sepharose was utilized. This medium has been used previously to purify NAD and NADP binding proteins from crude tissues extracts (Miyaguchi et al., 2011; Muratsubaki et al., 1994). FASN enriched extract from lactating pig mammary gland was bound to the resin and labeled with cysteine reactive fluorescein. […] Next, the molecules were tested for their ability to inhibit FASN activity in a HepG2 cell based assay that measured the incorporation of ^3H glucose into lipids (FIG. 1B and FIG. 9).
# Incorporation of radiolabeled glucose or acetate in total lipids was measured according to published methods (Haystead and Hardie, 1986). HepG2 cells (80% confluent in 12 wells plates) were starved overnight in MEM Alpha, the medium was then changed with DMEM medium containing 0.1 g/L glucose 10% FBS and 5 μM insulin and 1 μCi 3-[^3H] D-glucose or 1 μCi [^3H]-acetate in addition to different concentrations of each compound. After incubation for 1 hour at 37° C., 5% CO2, the cells were washed with ice cold PBS and detached by treating with 100 μl trypsin for 10 min then 1 ml of ice cold PBS was added. The cells suspension was then sonicated for 3 times in 30 seconds intervals and kept on ice. From each well 1 ml of cell lysate was added to a 4 ml scintillation vial and 2 ml of MicroScint-E was added. The vials were mixed thoroughly then centrifuged for 30 min at 3000 rpm and the ^3H radioactivity was measured by liquid scintillation counting.
# BT474 cells = test: Caspase 3/7 activity assay; type: cell-based
# Procedure: (§1) The assay was performed using a similar protocol to the one described by Fritz et al (Fritz et al., 2001). Cells were seeded at a density of 10,000 cells/well and treated with different concentrations of HS-106 or C75. After 24 hours, to each well, 50 μl of Caspase assay/lysis buffer (50 mM HEPES pH 7.5, 100 mM KCl, 5 mM EDTA, 10 mM MgC12, 10 mM CHAPS, 20% Sucrose, 10 mM DTT, 10 μM of (Z-DEVD)2-Rh110 (Santa Cruz Biotech) and complete protease inhibitor (Roche))was added. After 6 hours of incubation at 37° C., fluorescence was measured at Ex/Em: 485/535 nm.
# [2] = tested on: MMTV-Neu model of HER2+ breast cancer; test: Efficacy in MMTV-Neu model of HER2+ breast cancer; type: in vivo, mice; conditions: HS-106 30 pmol/kg BIW, Carboplatin 143 pmol/kg weekly, 21 days
# SKBR3 cells = test: Caspase 3/7 activity assay; type: cell-based; conditions: SKBR3, 24 hours
# Procedure: as §1
# HIV-1 = type: cell-based; conditions: supernatants on fresh TZM-bl indicator cells
# Procedure: (A) TZM-bl cells were transfected with pNL4-3 provirus plasmid for 48 h in the presence or absence of 10 μM Fasnall or C75 or DMSO (0.01%). Intracellular expression of HIV-1 proteins was monitored by HIVIG-western blot, and β-actin was used as loading control. (B) Supernatant associated virion production was monitored using a p24 ELISA. (C) 48 hours post-transfection, cell culture supernatants were removed and incubated with fresh TZM-bl (indicator) cells for an additional 48 hrs. Values expressed as the mean±standard deviation, and are representative of three independent experiments. p-values were generated with student's t-test. Molecular weight markers (kD) indicated in right margin.
# To test further the hypothesis that HIV-1 replication requires FASN activity during the late stages of viral replication, TZM-bl or SupT1 (data not shown) cells were transfected with a HIV-1 provirus (pNL43) in the presence or absence of Fasnall or C75. […] Thus, FASN inhibition reduces nascent HIV-1 virion production without reducing HIV-1 protein synthesis.
compound,measurement,setting,value
"Cc1sc2ncnc(N[C@H]3CCN(Cc4ccccc4)C3)c2c1C [HS-80, (S)—N-(1-benzylpyrrolidin-3-yl)-5,6-dimethylthieno[2,3-d]pyrimidin-4-amine]",inhibition of tritiated acetate incorporation into lipids,[1],inhibit the incorporation of tritiated acetate into lipids
CCCCCCCCCCCCCCOc1ccc(C(=O)O)o1 [TOFA],reversal of HS-106 induced caspase 3/7 activity by pretreatment,"BT474 cells; BT474, 15 μM TOFA pretreatment",completely reverse the effect of HS-106
"N.N.O=C([O-])C1(C(=O)[O-])CCC1.[Pt+2] [Carboplatin, reference compound]",tumors with objective response of stable disease or better,[2],25%
CCCCCCC(=O)CCCCCC/C=C/C[C@@H](O)[C@H](O)[C@@](N)(CO)C(=O)O [Myriocin],rescue from Fasnall induced apoptosis by ceramide synthesis inhibitor,"BT474 cells; BT474, 10 μM pretreatment, 24 hours",modestly rescue the cells
"Cc1sc2ncnc(N[C@@H]3CCN(Cc4ccccc4)C3)c2c1C [HS-79, (R)—N-(1-benzylpyrrolidin-3-yl)-5,6-dimethylthieno[2,3-d]pyrimidin-4-amine]",inhibition of tritiated acetate incorporation into lipids,[1],inhibit the incorporation of tritiated acetate into lipids
"C=C1C(=O)OC(CCCCCCCC)C1C(=O)O (centres unmarked) [C75, reference compound]",caspase activity relative to MCF10A cells,"BT474 cells; BT474, 24 hours",10 fold
same,caspase activity relative to MCF10A cells,SKBR3 cells,2 fold
same,number of infectious HIV-1 particles,HIV-1,similarly reduced the number of infectious HIV-1 particles
